# “Also recorded” adds a separate entry of the source.
# Columns and labels:
# human HSCs = conditions: culture media supplemented with nicotinamide riboside, primary and secondary recipient humanised mice; cited from earlier work
# [1] = tested on: murine HSCs (LKS CD150+CD48−); test: Mitochondrial membrane potential (TMRM staining, flow cytometry) of cultured murine HSCs; format: cell-based, mouse; conditions: compared to the Basal condition; day 3 of culture; NR 500 uM, Vit B12 (MC) 100 uM
# Experimental: Flow cytometry analysis was performed on freshly isolated bone marrow (BM) from C57BI6 mice. BM was extracted from crushed femora and tibia. Cell suspension was filtered through a 70 μm cell strainer and erythroid cells were eliminated by incubation with red blood cell lysis buffer (eBioscences). Isolation and stains were performed in ice-cold PBS 1 mM EDTA. Lineage positive cells were then removed with a magnetic lineage depletion kit (BD biosciences). Cell suspensions were then stained with specific antibodies for the stem cell compartment and sorted by FACS (BD FACS Aria III) into 1.5 ml Eppendorf tubes.
# The following antibodies were used in this study: rat mAbs against cKit (2B8), Sca1 (D7), CD150 (TC-15-12F12.2), CD48 (HM48-1). The antibodies were purchased from Biolegend, eBiosciences and BD. A mixture of biotinylated mAbs against CD3, CD11b, CD45R/B220, Ly-6G, Ly-6C and TER-119 was used as lineage marker (“lineage cocktail”) and was purchased from BD. DAPI or propidium iodine (PI) staining was used for live/dead cell discrimination.
# Murine HSCs were sorted into 1.5 ml Eppendorf tubes and were cultured in Stemline II (SIGMA) supplemented with 100 ng/ml SCF (R&D) and 2 ng/ml Flt3 (R&D). This was defined as the basal condition. Different concentrations as indicated of UroA, NR and Vit B12 (MC) were added in specific wells. NR was supplemented every 24 hours.
# Mouse HSCs already in culture were incubated at 37° C. for 1 hour with 200 nM tetramethylrhodamine methyl ester (TMRM; Invitrogen) and 100 nM Mitotracker green. Cells were then washed with FACS buffer and analysed by flow cytometry on a BD LSR II.
# Freshly FACS sorted mHSCs (LKS CD150+CD48−) were cultured in basal media (Stemline+SCF+FLT3L) supplemented with UroA, NR and MC in specific wells (as indicated). Cells were harvested at day 3 and stained with tetramethylrhodamine methyl ester (TMRM; to measure mitochondria membrane potential) and Mitotracker (to measure mitochondrial mass) and analysed by flow cytometry.
SMILES,levels of engraftment (human HSCs),MFI TMRM (Mean Fluorescence Intensity) [1],proportion of cells in the TMRM low gate [1]
"NC(=O)c1ccc[n+]([C@@H]2O[C@H](CO)[C@@H](O)[C@H]2O)c1 [NR, Nicotinamide riboside]",significantly higher,significantly decreased; also recorded: decreases,significantly increased; also recorded: increases
"C/C1=C2/[N-][C@H]([C@H](CC(N)=O)[C@@]2(C)CCC(=O)NC[C@@H](C)OP(=O)([O-])O[C@H]2[C@@H](O)[C@@H](n3cnc4cc(C)c(C)cc43)O[C@@H]2CO)[C@]2(C)N=C(/C(C)=C3N=C(/C=C4N=C1[C@@H](CCC(N)=O)C\4(C)C)[C@@H](CCC(N)=O)[C@]\3(C)CC(N)=O)[C@@H](CCC(N)=O)[C@]2(C)CC(N)=O.[CH3-].[Co] [MC, methylcobalamine]",–,significantly decreased; also recorded: decreases,significantly increased; also recorded: increases
